#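 96-well plates; 48 h exposure; 5 concentrations. Endpoints by linear interpolation between flanking doses. Not reached: highest tested concentration assigned. GI50: concentration for 50% inhibition of growth. TGI marks complete inhibition of growth.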
# What was measured:
# Test in all cases: growth of human tumour cells (NCI), 48 h
# NCI-H460 lung = system: NCI-H460 lung
# U251 CNS = system: U251 CNS
# K-562 leukemia = system: K-562 leukemia
# ACHN renal = system: ACHN renal
# CCRF-CEM leukemia = system: CCRF-CEM leukemia
# SK-MEL-5 melanoma = system: SK-MEL-5 melanoma
# SR leukemia = system: SR leukemia
# NCI/ADR-RES ovarian = system: NCI/ADR-RES ovarian
# SF-539 CNS = system: SF-539 CNS
# MDA-MB-231 breast = system: MDA-MB-231 breast
# HS 578T breast = system: HS 578T breast
# NCI-H522 lung = system: NCI-H522 lung
# HCT-15 colon = system: HCT-15 colon
# HT29 colon = system: HT29 colon
# UACC-62 melanoma = system: UACC-62 melanoma
# COLO 205 colon = system: COLO 205 colon
# BT-549 breast = system: BT-549 breast
# SK-MEL-2 melanoma = system: SK-MEL-2 melanoma
# HOP-92 NSCLC = system: HOP-92 NSCLC
# OVCAR-3 ovarian = system: OVCAR-3 ovarian
# EKVX NSCLC = system: EKVX NSCLC
# RXF 393 renal = system: RXF 393 renal
# PC-3 prostate = system: PC-3 prostate
# 786-0 renal = system: 786-0 renal
# SW-620 colon = system: SW-620 colon
# HL-60(TB) leukemia = system: HL-60(TB) leukemia
# SNB-75 CNS = system: SNB-75 CNS
# MOLT-4 leukemia = system: MOLT-4 leukemia
# OVCAR-8 ovarian = system: OVCAR-8 ovarian
# SK-OV-3 ovarian = system: SK-OV-3 ovarian
# SF-295 CNS = system: SF-295 CNS
# MDA-MB-435 = system: MDA-MB-435
# SF-268 CNS = system: SF-268 CNS
# A549 NSCLC = system: A549 NSCLC
# HCC-2998 colon = system: HCC-2998 colon
# OVCAR-4 ovarian = system: OVCAR-4 ovarian
# M14 melanoma = system: M14 melanoma
# SNB-19 CNS = system: SNB-19 CNS
# HCT-116 colon = system: HCT-116 colon
# CAKI-1 renal = system: CAKI-1 renal
# A498 renal = system: A498 renal
# T-47D breast = system: T-47D breast
# RPMI-8226 leukemia = system: RPMI-8226 leukemia
# MCF7 breast = system: MCF7 breast
# KM12 colon = system: KM12 colon
# OVCAR-5 ovarian = system: OVCAR-5 ovarian
# SK-MEL-28 melanoma = system: SK-MEL-28 melanoma
# NCI-H226 lung = system: NCI-H226 lung
# IGROV1 ovarian = system: IGROV1 ovarian
# SN12C renal = system: SN12C renal
# TK-10 renal = system: TK-10 renal
# HOP-62 NSCLC = system: HOP-62 NSCLC
# DU-145 prostate = system: DU-145 prostate
# LOX IMVI melanoma = system: LOX IMVI melanoma
# NCI-H23 lung = system: NCI-H23 lung
# UO-31 renal = system: UO-31 renal
smiles,measurement,setting,value
CCC1C[N+]2=C(c3cc(OC)c(OC)cc3CC2)c2c1cc1n2CCc2cc(OC)c(OC)cc2-1 (configuration not stated),GI50,NCI-H460 lung,2820 nM
same,TGI,NCI-H460 lung,12.1 µM
same,GI50,U251 CNS,2250 nM
same,TGI,U251 CNS,14.5 µM
same,GI50,K-562 leukemia,1950 nM
same,TGI,K-562 leukemia,20.8 µM
same,GI50,ACHN renal,14.7 µM
same,TGI,ACHN renal,30.1 µM
same,GI50,CCRF-CEM leukemia,3.68 µM
same,TGI,CCRF-CEM leukemia,42.4 µM
same,GI50,SK-MEL-5 melanoma,1260 nM
same,TGI,SK-MEL-5 melanoma,2610 nM
same,GI50,SR leukemia,3.1 µM
same,TGI,SR leukemia,> 100 µM
same,GI50,NCI/ADR-RES ovarian,64.3 µM
same,TGI,NCI/ADR-RES ovarian,> 100 µM
same,GI50,SF-539 CNS,3.34 µM
same,TGI,SF-539 CNS,14.9 µM
same,GI50,MDA-MB-231 breast,2270 nM
same,TGI,MDA-MB-231 breast,8.44 µM
same,GI50,HS 578T breast,4.1 µM
same,TGI,HS 578T breast,> 100 µM
same,GI50,NCI-H522 lung,1810 nM
same,TGI,NCI-H522 lung,13.9 µM
same,GI50,HCT-15 colon,14 µM
same,TGI,HCT-15 colon,34.7 µM
same,GI50,HT29 colon,3.23 µM
same,TGI,HT29 colon,20.3 µM
same,GI50,UACC-62 melanoma,1930 nM
same,TGI,UACC-62 melanoma,6.03 µM
same,GI50,COLO 205 colon,1230 nM
same,TGI,COLO 205 colon,3.71 µM
same,GI50,BT-549 breast,2690 nM
same,TGI,BT-549 breast,13.5 µM
same,GI50,SK-MEL-2 melanoma,2670 nM
same,TGI,SK-MEL-2 melanoma,7.31 µM
same,GI50,HOP-92 NSCLC,1780 nM
same,TGI,HOP-92 NSCLC,6.08 µM
same,GI50,OVCAR-3 ovarian,1000 nM
same,TGI,OVCAR-3 ovarian,10.8 µM
same,GI50,EKVX NSCLC,6.62 µM
same,TGI,EKVX NSCLC,> 100 µM
same,GI50,RXF 393 renal,3.46 µM
same,TGI,RXF 393 renal,15.5 µM
same,GI50,PC-3 prostate,2500 nM
same,TGI,PC-3 prostate,33.1 µM
same,GI50,786-0 renal,11 µM
same,TGI,786-0 renal,30.1 µM
same,GI50,SW-620 colon,4.25 µM
same,TGI,SW-620 colon,16.8 µM
same,GI50,HL-60(TB) leukemia,2470 nM
same,TGI,HL-60(TB) leukemia,10.1 µM
same,GI50,SNB-75 CNS,1770 nM
same,TGI,SNB-75 CNS,7.48 µM
same,GI50,MOLT-4 leukemia,3.97 µM
same,TGI,MOLT-4 leukemia,23.6 µM
same,GI50,OVCAR-8 ovarian,2580 nM
same,TGI,OVCAR-8 ovarian,82.1 µM
same,GI50,SK-OV-3 ovarian,5.01 µM
same,TGI,SK-OV-3 ovarian,37.5 µM
same,GI50,SF-295 CNS,6.37 µM
same,TGI,SF-295 CNS,27.7 µM
same,GI50,MDA-MB-435,1620 nM
same,TGI,MDA-MB-435,6.09 µM
same,GI50,SF-268 CNS,3.49 µM
same,TGI,SF-268 CNS,31.8 µM
same,GI50,A549 NSCLC,11.8 µM
same,TGI,A549 NSCLC,> 100 µM
same,GI50,HCC-2998 colon,2550 nM
same,TGI,HCC-2998 colon,12.9 µM
same,GI50,OVCAR-4 ovarian,1140 nM
same,TGI,OVCAR-4 ovarian,8.87 µM
same,GI50,M14 melanoma,3.66 µM
same,TGI,M14 melanoma,14.6 µM
same,GI50,SNB-19 CNS,2750 nM
same,TGI,SNB-19 CNS,15.7 µM
same,GI50,HCT-116 colon,2890 nM
same,TGI,HCT-116 colon,13.1 µM
same,GI50,CAKI-1 renal,20.6 µM
same,TGI,CAKI-1 renal,65.7 µM
same,GI50,A498 renal,7.36 µM
same,TGI,A498 renal,33 µM
same,GI50,T-47D breast,746 nM
same,TGI,T-47D breast,5.51 µM
same,GI50,RPMI-8226 leukemia,576 nM
same,TGI,RPMI-8226 leukemia,15 µM
same,GI50,MCF7 breast,1250 nM
same,TGI,MCF7 breast,13.3 µM
same,GI50,KM12 colon,1500 nM
same,TGI,KM12 colon,10.9 µM
same,GI50,OVCAR-5 ovarian,12.1 µM
same,TGI,OVCAR-5 ovarian,> 100 µM
same,GI50,SK-MEL-28 melanoma,1930 nM
same,TGI,SK-MEL-28 melanoma,10.1 µM
same,GI50,NCI-H226 lung,7.49 µM
same,TGI,NCI-H226 lung,21.2 µM
same,GI50,IGROV1 ovarian,5.62 µM
same,TGI,IGROV1 ovarian,53.6 µM
same,GI50,SN12C renal,1930 nM
same,TGI,SN12C renal,11.8 µM
same,GI50,TK-10 renal,6.84 µM
same,TGI,TK-10 renal,21.1 µM
same,GI50,HOP-62 NSCLC,3.51 µM
same,TGI,HOP-62 NSCLC,26.5 µM
same,GI50,DU-145 prostate,5.37 µM
same,TGI,DU-145 prostate,36.8 µM
same,GI50,LOX IMVI melanoma,3.72 µM
same,TGI,LOX IMVI melanoma,23.2 µM
same,GI50,NCI-H23 lung,2770 nM
same,TGI,NCI-H23 lung,18.7 µM
same,GI50,UO-31 renal,18.4 µM
same,TGI,UO-31 renal,46.8 µM
